Converted amounts (≈) assume the structure as drawn.
Experiments:
[1] = system: Proteus vulgaris; experiment: Antimicrobial activity against Proteus vulgaris after 18 to 20 hr by agar dilution method; assay type: functional
[2] = system: Escherichia coli; experiment: Ratio of ciproflaxacin ED50 to compound ED50 for Escherichia coli NCTC 10418 infected in po dosed CF mouse; assay type: functional
[3] = system: Human immunodeficiency virus 1; experiment: Antiviral activity against Human immunodeficiency virus 1 IIIB infected MT4 cells assessed as inhibition of virus-induced cytopathicity after 5 days by MTT assay; assay type: functional, organism-based; settings: MT4, 120 h
[4] = system: Citrobacter freundii; experiment: Antimicrobial activity against Citrobacter freundii after 18 to 20 hr by agar dilution method; assay type: functional
[5] = system: Klebsiella pneumoniae; experiment: Antimicrobial activity against Klebsiella pneumoniae subsp. ozaenae after 18 to 20 hr by agar dilution method; assay type: functional
[6] = system: Vibrio mimicus; experiment: Antimicrobial activity against Vibrio mimicus after 18 to 20 hr by agar dilution method; assay type: functional
[7] = system: Salmonella enteritidis; experiment: Antimicrobial activity against Salmonella enterica subsp. enterica serovar Enteritidis after 18 to 20 hr by agar dilution method; assay type: functional
[8] = system: Human immunodeficiency virus 1; experiment: Antiviral activity against Human immunodeficiency virus 1 IIIB infected CEM cells assessed as inhibition of virus-induced cytopathicity after 6 days by XTT assay; assay type: functional, organism-based; settings: CCRF-CEM, 144 h
[9] = system: Salmonella typhimurium; experiment: Antimicrobial activity against Salmonella enterica subsp. enterica serovar Typhimurium after 18 to 20 hr by agar dilution method; assay type: functional
[10] = system: Vibrio parahaemolyticus; experiment: Antimicrobial activity against Vibrio parahaemolyticus after 18 to 20 hr by agar dilution method; assay type: functional
[11] = system: Shigella sonnei; experiment: Antimicrobial activity against Shigella sonnei after 18 to 20 hr by agar dilution method; assay type: functional
[12] = system: Vero; experiment: Cytotoxicity against Chlorocebus aethiops (African green monkey) Vero cells up to 62.5 ug/ml; assay type: cell-based; settings: chlorocebus sabaeus
[13] = system: Plesiomonas; experiment: Antimicrobial activity against Plesiomonas after 18 to 20 hr by agar dilution method; assay type: functional
[14] = system: Shigella boydii; experiment: Antimicrobial activity against Shigella boydii after 18 to 20 hr by agar dilution method; assay type: functional
[15] = system: Pseudomonas aeruginosa; experiment: Antimicrobial activity against Pseudomonas aeruginosa after 18 to 20 hr by agar dilution method; assay type: functional
[16] = Cytotoxicity against Homo sapiens (human) MT4 cells after 5 days by MTT assay; assay type: cell-based
[17] = system: Salmonella paratyphi; experiment: Antimicrobial activity against Salmonella enterica subsp. enterica serovar Paratyphi A after 18 to 20 hr by agar dilution method; assay type: functional
[18] = system: Priestia megaterium; experiment: Antimicrobial activity against Bacillus megaterium after 18 to 20 hr by agar dilution method; assay type: functional
[19] = system: Escherichia coli; experiment: Antibacterial activity against Escherichia coli NCTC 10418 infected in po dosed CF mouse compound administered 1 hr prior and 4 hr post infection; assay type: functional; settings: NCTC 10418, po
[20] = system: Enterobacter; experiment: Antimicrobial activity against Enterobacter after 18 to 20 hr by agar dilution method; assay type: functional
[21] = system: Edwardsiella tarda; experiment: Antimicrobial activity against Edwardsiella tarda after 18 to 20 hr by agar dilution method; assay type: functional
[22] = system: Human immunodeficiency virus 1; experiment: Antiviral activity against Human immunodeficiency virus 1 IIIB infected CEM cells assessed as protection against viral infection after 6 days by XTT assay; assay type: functional, CCRF-CEM; set-up: concentration or dose not given beside the values
[23] = system: Mycobacterium tuberculosis; experiment: Antimycobacterial activity against Mycobacterium tuberculosis H37Rv ATCC 27294; assay type: functional
[24] = system: Morganella morganii; experiment: Antimicrobial activity against Morganella morganii after 18 to 20 hr by agar dilution method; assay type: functional
[25] = system: Vibrio cholerae; experiment: Antimicrobial activity against Vibrio cholerae 01 after 18 to 20 hr by agar dilution method; assay type: functional; settings: 1
[26] = system: Human immunodeficiency virus 1; experiment: Antiviral activity against Human immunodeficiency virus 1 IIIB infected MT4 cells assessed as protection against viral infection after 5 days by MTT assay; assay type: functional; set-up: concentration or dose not given beside the values
[27] = Selectivity index, ratio of CC50 for human MT4 cells to EC50 for HIV1 3B infected in MT4 cells; assay type: toxicity, cell-based; settings: read-out: Ratio CC50/EC50
[28] = system: Hepatitis C virus; experiment: Antiviral activity against Hepatitis C virus BM4-5 infected in Huh7 cells assessed as inhibition of viral RNA replication by phosphor screening method; assay type: functional, Hepacivirus hominis, Huh-7
[29] = system: Klebsiella pneumoniae; experiment: Antimicrobial activity against Klebsiella pneumoniae after 18 to 20 hr by agar dilution method; assay type: functional
[30] = system: Mycobacterium tuberculosis; experiment: Antimycobacterial activity against Mycobacterium tuberculosis H37Rv ATCC 27294 at 6.25 ug/ml by MABA; assay type: functional
[31] = system: Proteus mirabilis; experiment: Antimicrobial activity against Proteus mirabilis after 18 to 20 hr by agar dilution method; assay type: functional
[32] = Cytotoxicity against Homo sapiens (human) CEM cells after 5 days by MTT assay; assay type: cell-based; settings: CEM cells (CCRF-CEM)
[33] = Cytotoxicity against Homo sapiens (human) HuH7 cells assessed as cell growth at 50 ug/ml after 3 days by Neutral red assay; assay type: cell-based, Huh-7; settings: read-out: Activity
[34] = molecular target: Human immunodeficiency virus type 1 reverse transcriptase (Human immunodeficiency virus 1, UniProt Q72547); experiment: Inhibition of Human immunodeficiency virus 1 RT using Poly(vC)oligo (dG) as template/primer after 30 min
[35] = system: Staphylococcus aureus; experiment: Antimicrobial activity against Staphylococcus aureus after 18 to 20 hr by agar dilution method; assay type: functional
[36] = system: Vibrio cholerae; experiment: Antimicrobial activity against Vibrio cholerae 0139 after 18 to 20 hr by agar dilution method; assay type: functional; settings: 139
[37] = system: Escherichia coli; experiment: Antimicrobial activity against Escherichia coli NCTC 10418 after 18 to 20 hr by agar dilution method; assay type: functional
[38] = system: Salmonella typhi; experiment: Antimicrobial activity against Salmonella enterica subsp. enterica serovar Typhi after 18 to 20 hr by agar dilution method; assay type: functional
[39] = system: Vibrio fluvialis; experiment: Antimicrobial activity against Vibrio fluvialis after 18 to 20 hr by agar dilution method; assay type: functional

| Structure (SMILES) | MIC [1] | MIC [4] | MIC [5] | MIC [6] | MIC [7] | EC50 [8] | MIC [9] | MIC [10] | MIC [11] | Activity [12] | MIC [13] | MIC [14] | MIC [15] | MIC [17] | MIC [18] | MIC [20] | MIC [21] | Activity [22] | MIC [23] | MIC [24] | other results |
| --- | --- | --- | --- | --- | --- | --- | --- | --- | --- | --- | --- | --- | --- | --- | --- | --- | --- | --- | --- | --- | --- |
| COc1cc(Cc2cnc(/N=C3\C(=O)N(CN4CCN(c5cc6c(cc5F)c(=O)c(C(=O)O)cn6C5CC5)CC4)c4ccc(Cl)cc43)nc2N)cc(OC)c1OC | 0.0095 µg/mL (≈ 0.0119 µM) | 1.22 µg/mL (≈ 1.53 µM) | 4.83 µg/mL (≈ 6.06 µM) | 0.0095 µg/mL (≈ 0.0119 µM) | 0.61 µg/mL (≈ 0.766 µM) | > 200 µg/mL | 0.0047 µg/mL (≈ 0.0059 µM) | 0.0763 µg/mL (≈ 0.0957 µM) | 0.31 µg/mL (≈ 0.389 µM) | Non-toxic | 1.22 µg/mL (≈ 1.53 µM) | 2.44 µg/mL (≈ 3.06 µM) | 1.22 µg/mL (≈ 1.53 µM) | 0.153 µg/mL (≈ 0.191 µM) | 0.019 µg/mL (≈ 0.0238 µM) | 0.0381 µg/mL (≈ 0.0478 µM) | 0.019 µg/mL (≈ 0.0238 µM) | 33.3% | 3.13 µg/mL (≈ 3.93 µM) | 1.22 µg/mL (≈ 1.53 µM) | Ratio ED50 [2]: 2; EC50 [3]: 9.4 µg/mL (≈ 11.8 µM); CC50 at 120 h [16]: 187 µg/mL (≈ 234 µM); ED50 [19]: 0.62 mg/kg; MIC [25]: 4.88 µg/mL (≈ 6.12 µM); Activity [26]: 101%; selectivity ratio [27]: > 19; inhibition (INH) [28]: 86%; MIC [29]: 0.31 µg/mL (≈ 0.389 µM); inhibition at 6.25 µg/mL [30]: 100%; MIC [31]: 0.019 µg/mL (≈ 0.0238 µM); CC50 at 120 h [32]: > 200 µg/mL; viability at 72 h, 50 ug/ml [33]: 109%; IC50 [34]: 18.4 µM; MIC [35]: 4.88 µg/mL (≈ 6.12 µM); MIC [36]: 0.019 µg/mL (≈ 0.0238 µM); MIC [37]: 0.0381 µg/mL (≈ 0.0478 µM); MIC [38]: 0.305 µg/mL (≈ 0.383 µM); MIC [39]: 0.0095 µg/mL (≈ 0.0119 µM) |
| CCn1cc(C(=O)O)c(=O)c2cc(F)c(N3CCN(CN4C(=O)/C(=N\c5ncc(Cc6cc(OC)c(OC)c(OC)c6)c(N)n5)c5cc(Cl)ccc54)C(C)C3)c(F)c21 (stereo unspecified) | 0.153 µg/mL (≈ 0.187 µM) | 0.0047 µg/mL (≈ 0.00575 µM) | 19.5 µg/mL (≈ 23.9 µM) | 0.0381 µg/mL (≈ 0.0466 µM) | 0.0095 µg/mL (≈ 0.0116 µM) | > 18.7 µg/mL | 0.0381 µg/mL (≈ 0.0466 µM) | 0.0047 µg/mL (≈ 0.00575 µM) | 4.88 µg/mL (≈ 5.97 µM) | Non-toxic | 1.22 µg/mL (≈ 1.49 µM) | 0.305 µg/mL (≈ 0.373 µM) | 0.153 µg/mL (≈ 0.187 µM) | 0.019 µg/mL (≈ 0.0232 µM) | 0.019 µg/mL (≈ 0.0232 µM) | 0.0095 µg/mL (≈ 0.0116 µM) | 0.0763 µg/mL (≈ 0.0934 µM) | 48.3% | 1.56 µg/mL (≈ 1.91 µM) | 0.153 µg/mL (≈ 0.187 µM) | EC50 [3]: 17.2 µg/mL (≈ 21 µM); CC50 at 120 h [16]: 36.9 µg/mL (≈ 45.2 µM); ED50 [19]: 1.25 mg/kg; MIC [25]: 0.0095 µg/mL (≈ 0.0116 µM); Activity [26]: 89%; selectivity ratio [27]: 3; inhibition (INH) [28]: 60%; MIC [29]: 9.77 µg/mL (≈ 11.9 µM); inhibition at 6.25 µg/mL [30]: 100%; MIC [31]: 0.0763 µg/mL (≈ 0.0934 µM); CC50 at 120 h [32]: 18.7 µg/mL (≈ 22.9 µM); viability at 72 h, 50 ug/ml [33]: 85%; MIC [35]: 0.0763 µg/mL (≈ 0.0934 µM); MIC [36]: 0.0381 µg/mL (≈ 0.0466 µM); MIC [37]: 0.153 µg/mL (≈ 0.187 µM); MIC [38]: 0.019 µg/mL (≈ 0.0232 µM); MIC [39]: 0.019 µg/mL (≈ 0.0232 µM) |
| COc1cc(Cc2cnc(/N=C3\C(=O)N(CN4CCN(c5c(F)cc6c(=O)c(C(=O)O)cn(C7CC7)c6c5F)CC4C)c4ccc(Cl)cc43)nc2N)cc(OC)c1OC (stereo unspecified) | 0.0763 µg/mL (≈ 0.092 µM) | 0.0095 µg/mL (≈ 0.0115 µM) | 0.0381 µg/mL (≈ 0.0459 µM) | 0.019 µg/mL (≈ 0.0229 µM) | 0.019 µg/mL (≈ 0.0229 µM) | > 67 µg/mL | 0.0381 µg/mL (≈ 0.0459 µM) | 0.0763 µg/mL (≈ 0.092 µM) | 0.152 µg/mL (≈ 0.183 µM) | Non-toxic | 0.0381 µg/mL (≈ 0.0459 µM) | 0.0381 µg/mL (≈ 0.0459 µM) | 0.019 µg/mL (≈ 0.0229 µM) | 0.153 µg/mL (≈ 0.184 µM) | 0.019 µg/mL (≈ 0.0229 µM) | 0.019 µg/mL (≈ 0.0229 µM) | 0.0763 µg/mL (≈ 0.092 µM) | 20.04% | 3.13 µg/mL (≈ 3.77 µM) | 0.0381 µg/mL (≈ 0.0459 µM) | MIC [25]: 0.61 µg/mL (≈ 0.736 µM); MIC [29]: 2.44 µg/mL (≈ 2.94 µM); inhibition at 6.25 µg/mL [30]: 100%; MIC [31]: 0.0763 µg/mL (≈ 0.092 µM); CC50 at 120 h [32]: 67 µg/mL (≈ 80.8 µM); MIC [35]: 0.019 µg/mL (≈ 0.0229 µM); MIC [36]: 0.153 µg/mL (≈ 0.184 µM); MIC [37]: 0.0763 µg/mL (≈ 0.092 µM); MIC [38]: 0.019 µg/mL (≈ 0.0229 µM); MIC [39]: 0.019 µg/mL (≈ 0.0229 µM) |
